From patent US7354711B2, “Methods for inhibiting immunostimulatory DNA associated responses” (University of Iowa Research Foundation, priority 1997, dated 2008)

How the values were obtained:
WEHI 231 cells [1] = experiment: Inhibition of CpG-ODN 1760 protection against α-sIgM-induced inhibition of [3H] thymidine uptake; type: cell-based, mouse; conditions: for vs. Chloroquine, fold / Activity,-log10 (concentration (M) for half maximal inhibition of CpG-ODN effect on [3H] thymidine uptake in the presence of α-sIgM): Table 3, 9-aminoacridines; for Activity,-log10 (concentration (M) for half maximal inhibition of CpG-ODN effect on [3H] thymidine uptake in the presence of α-sIgM) / Activity: -log10 of the concentration (M) required for half maximal inhibition of CpG-ODN effect on [3H] thymidine uptake in the presence of α-sIgM: WEHI 231 cells; for Fold: activity expressed as a fraction of activity of chloroquine / Activity: -log10 of the concentration (M) required for half maximal inhibition of CpG-ODN effect on [3H] thymidine uptake in the presence of α-sIgM: Table 2, 4-aminoquinolines; for Inhibition of the CpG-ODN effect (FIG. 1): at nanomolar concentrations, 10 μg/mL α-sIgM, 6 μg/mL ODN 1760; for Effect on CpG-ODN action (FIG. 1): at concentrations less than 10 μM
Experimental: The assay of [^3H] Thymidine incorporation was carried out as follows. WEHI 231 cells (200 μL at 2×10^5/milliliter, in duplicate or triplicate) were incubated in a 96-well plate (Costar, Cambridge Mass.). Additions were made as indicated. After incubating for 16 hours, 0.5 μCi [methyl-^3H] thymidine (2 Ci/millimole, DuPont NEN, Boston Mass.) was added to each well, and the cells were incubated for another 4 hours. Cellular DNA was then captured onto glass fiber filters (Whatman 934AH) using a cell harvester (Brandel, Gaithersberg Md.). The filters were dried, placed into plastic scintillation vials with 10 milliliters of scintillation cocktail (EconoSafe, Research Products International, Mount Prospect Ill.), and counted in a liquid scintillation counter (Beckman LS-3133 T). The ^3H recovered on the filter was expressed as a fraction of the ^3H added.
Referring to experiments summarized in FIG. 1, WEHI 231 cells (ca. 2×10^5 per milliliter) were incubated for 16 hours at 37° C. with 10 μgrams/milliliter α-sIgM, 6 μgrams/milliliter ODN 1760, and the indicated concentration of the compound. After 16 hours, 0.5 μCi [^3H] thymidine was added. After 4 more hours incubation, the cellular DNA was harvested onto glass fiber filters. The dry filters were counted in a liquid scintillation counter.
Each experimental point was the mean of at least duplicate measurements.
Referring to the experiments summarized in FIG. 3, 10 μgrams/milliliter α-sIgM and the indicated concentrations of ODN 1760 and quinacrine were added simultaneously to WEHI 231 cells. Thymidine incorporation was estimated at 16 hours as described for Example 1.
Referring to the experiments summarized in FIG. 4, WEHI 231 cells were incubated with α-sIgM and ODN 1760. At times thereafter 0.1 μM quinacrine was added (data shown in the left three bars). Cells were incubated with 10 μgrams/milliliter (α-sIgM and ODN 1760 (6 μgrams/milliliter, phosphorothioate or a phosphodiester ODN with the same sequence as 1760 (PD ODN) (30 μM at time 0 hours and 8 hours; data represented in right six bars in FIG. 4). [^3H] thymidine incorporation was estimated at 16 hours.
The symbol — indicates no change. Me and Et indicate —CH3 and —CH2CH3 respectively. Aromatic substituents are in the para position except as indicated. The activity is —log10 of the concentration (M) required for half maximal inhibition of CpG-ODN effect on [^3H] thymidine uptake in the presence of α-sIgM.

WEHI 231 cells [2] = experiment: CpG-ODN-induced IL-6 synthesis (ELISA); type: cell-based, mouse; conditions: 30 nM
Experimental: The assay of IL6 was generally carried out as follows. […] After 24 hours, the IL-6 content of the supernatant was assayed by enzyme-linked immunoassay using two monoclonal antibodies in a sandwich technique as described by the manufacturer, using standards supplied (PharMingen, San Diego Calif.).

7TD1 cells = experiment: Inhibition of 7TD1 cell growth; type: cell-based, mouse
Experimental: One particularly useful cell line for the assay of immunostimulatory DNA action is the mouse-mouse hybridoma plasma cell line 7TD1(ATTC #CRL 1851), which requires exoqenous IL-6 for growth, and has been used to characterize and assay IL-6 (Papadopolous et al., 1995. J. Clin. Lab. Anal. 9:234-7; Krakauer, 1993. J. Immunoassay 14:267-77).
The 7TD1 cells were grown in RPMI 1640 supplemented with 10% fetal bovine serum (heat inactivated at 65° C., 1 hour), 0.3 grams/Liter L-glutamine, 50 milligrams/Liter gentamycin, 0.05 mM 2-mercaptoethanol, and 10 units per milliliter murine IL-6 in a 37° C. humid atmosphere with 5% CO2. Viable 7TD1 cells were counted in a hemocytometer chamber in duplicate after dilution with 0.4% trypan blue.
The 7TD1 cells were incubated for five days and were washed twice with medium to remove IL-6, and resuspended at 2×10^4 per milliliter in medium. Cell counts were performed and the percent inhibition of growth was computed. The term “anti” refers to 40 nanograms/milliliter neutralizing antibody to IL-6.

human mononuclear cells = experiment: ODN 1760-induced [3H] thymidine incorporation in human mononuclear cells; type: cell-based; conditions: unfractionated human peripheral blood cells, four days
Experimental: [^3H] thymidine incorporation (18 hour pulse) was then measured. […] Thymidine incorporation for untreated samples was less than 0.05%. Samples from three donors were averaged, and error bars indicate 1 standard deviation.

[3] = tested on: human peripheral blood mononuclear cells (PBMC); experiment: ODN 1760-induced IL-6 production in human peripheral blood mononuclear cells; type: cell-based; conditions: 24 hours
Experimental: Referring to the experiments summarized in FIG. 9, human peripheral blood mononuclear cells (PBMC) from three donors were incubated with or without ODN 1760 and the indicated concentration of test compound. After 24 hours, the concentration of IL-6 was determined in the supernatant. The figure indicates the percentage of IL-6 in reference to ODN-treated cells. The IL-6 amounts for control sample per donor were as follows: donor 1, 203 picograms/milliliter; donor 2, 71.5 picograms/milliliter; donor 3, 465 picograms/milliliter. IL-6 measured from untreated cells was 0-21 picograms/milliliter. Results from the three donors were averaged, and error bars indicate 1 standard deviation.

[4] = tested on: multi-drug resistance pump; experiment: Potency with inhibition of the multi-drug resistance pump; type: cell-based
[5] = 6 μg/mL ODN 1760 + 1 μg chloroquine (so in the source)
[6] = 6 μg/mL ODN 1760 + 3μ chloroquine (so in the source)

Molecule | Fold: activity expressed as a fraction of activity of chloroquine (WEHI 231 cells [1]) [fold] | Activity: -log10 of the concentration (M) required for half maximal inhibition of CpG-ODN effect on [3H] thymidine uptake in the presence of α-sIgM (WEHI 231 cells [1]) | other results
CCN(CC)CCCC(Nc1c2ccc(Cl)cc2nc2ccc(OC)cc12)c1ccc(Cl)cc1 (stereo not drawn) [compound 28] |  |  | vs. Chloroquine, fold (WEHI 231 cells [1]): 1.82 fold; Activity,-log10 (concentration (M) for half maximal inhibition of CpG-ODN effect on [3H] thymidine uptake in the presence of α-sIgM) (WEHI 231 cells [1]): 7.22
CCN(CC)CCCC(C)Nc1ccnc2cc(Oc3ccccc3)ccc12 (stereo not drawn) [compound 64] | 0.62 | 6.75 | 
CCN(CC)CCCC(C)Nc1ccnc2cc(Cl)ccc12 (stereo not drawn) [chloroquine] |  |  | Inhibition of the CpG-ODN effect (FIG. 1) (WEHI 231 cells [1]): completely inhibited; Reversal of ODN 1760 effect on IL-6 elaboration (WEHI 231 cells [2]): completely reversed; 7TD1 cells/μL (7TD1 cells; [5]): 7 cells/μL; % Growth Inhibition (7TD1 cells; [5]): 98.1%; 7TD1 cells/μL (7TD1 cells; [6]): 10 cells/μL; % Growth Inhibition (7TD1 cells; [6]): 97.5%; 7TD1 cells/μL (7TD1 cells; 10 μg/mL IL-6 + 1 μM compound): 610 cells/μL; % Growth Inhibition (7TD1 cells; 10 μg/mL IL-6 + 1 μM compound): 31.2%; % Growth Inhibition (7TD1 cells; 10 μg/mL IL-6 + 3 μM compound): 38.3%; Effect on IL-6-induced growth (7TD1 cells; 7TD1 cells, IL-6): little effect; Effect on growth stimulation by CpG-ODN (7TD1 cells; 7TD1 cells, ODN 1760): blocked; Effect on ODN 1760-induced thymidine incorporation (FIG. 8) (human mononuclear cells): inhibited; Effect on ODN 1760-induced IL-6 production (FIG. 9) [3]: inhibited; Change of potency on inhibition of the multi-drug resistance pump [4]: magnified
CCN(CC)CC=CC(C)Nc1ccnc2cc(Cl)ccc12 (stereo not drawn) [compound 53] | 0.81 | 6.87 | 
CCN(CC)CCCCNc1c(C)cnc2cc(Cl)ccc12 [compound 35] | 0.81 | 6.87 | 
CCN(CC)CCCC(C)Nc1cc(-c2ccccc2)nc2cc(OC)ccc12 (stereo not drawn) [compound 44] | 3.63 | 7.52 | 
CCN(CCO)CCCC(C)Nc1ccnc2cc(Cl)ccc12 (stereo not drawn) [hydroxychloroquine, reference compound] |  |  | Inhibition of the CpG-ODN effect (FIG. 1) (WEHI 231 cells [1]): completely inhibited
CCN(CC)CCCC(Nc1c2ccc(Cl)cc2nc2ccc(OC)cc12)c1ccc(F)cc1 (stereo not drawn) [compound 23] |  |  | vs. Chloroquine, fold (WEHI 231 cells [1]): 2.57 fold; Activity,-log10 (concentration (M) for half maximal inhibition of CpG-ODN effect on [3H] thymidine uptake in the presence of α-sIgM) (WEHI 231 cells [1]): 7.37
CCN(CC)CCCC(C)Nc1c(C)cnc2cc(Cl)c(C)cc12 (stereo not drawn) [compound 46] | 0.21 | 6.28 | 
CCOc1cc2c(NC(C)CCCN(CC)CC)c(C)cnc2cc1Cl (stereo not drawn) [compound 71] | 0.09 | 5.90 | 
CCN(CC)CCCC(C)Nc1c(C)cnc2cccc(C)c12 (stereo not drawn) [compound 40] | 0.23 | 6.32 | 
CN(C)CCCCNc1ccnc2cc(Cl)ccc12 [compound 10] | 0.72 | 6.82 | 
COc1cc(NC(C)CCCN)c2ncccc2c1 (stereo not drawn) [primaquine, reference compound] |  |  | Effect on CpG-ODN action (FIG. 1) (WEHI 231 cells [1]): little effect
CCN(CC)CCCC(C)Nc1c(C)c(C)nc2ccccc12 (stereo not drawn) [compound 39] | 0.04 | 5.58 | 
C=C[C@H]1C[N@@]2CC[C@H]1C[C@@H]2[C@@H](O)c1ccnc2ccc(OC)cc12 [Quinidine, quinidine, reference compound] |  |  | Effect on CpG-ODN action (FIG. 1) (WEHI 231 cells [1]): little effect
CCN(CC)CCCC(Nc1c2ccc(Cl)cc2nc2ccc(OC)cc12)c1ccccc1 (stereo not drawn) [compound 25] |  |  | vs. Chloroquine, fold (WEHI 231 cells [1]): 5.75 fold; Activity,-log10 (concentration (M) for half maximal inhibition of CpG-ODN effect on [3H] thymidine uptake in the presence of α-sIgM) (WEHI 231 cells [1]): 7.72
CCN(CC)CCCC(C)Nc1ccnc2cc(Oc3ccccc3)ccc12 (stereo not drawn) [compound 50] | 0.74 | 6.83 | 
CN(C)C(C)(C)CCCNc1ccnc2cc(Cl)ccc12 [compound 68] | 0.81 | 6.87 | 
CCN(CC)CCCC(C)Nc1c(C)cnc2cc(Cl)c(C)cc12 (stereo not drawn) [compound 32] | 2.57 | 7.37 | 
IL-6: murine IL-6 purchased from PharMingen (protein, UniProt P08505 25-211, looked up) Interleukin-6: FPTSQVRRGDFTEDTTPNRPVYTTSQVGGLITHVLWEIVEMRKELCNGNSDCMNNDDALAENNLKLPEIQRNDGCYQTGYNQEICLLKISSGLLEYHSYLEYMKNNLKDNKKDKARVLQRDTETLIHIFNQEVKDLHKIVLPTPISNALLTDKLESQKEWLRTKTIQFILKSLEEFLKVTLRSTRQT |  |  | 7TD1 cells/μL (7TD1 cells; 10 μg/mL IL-6 alone, five days): 887 cells/μL
